Measured values as given in patent US20240067631A1, “PYRAZOLE DERIVATIVES USEFUL AS NAMPT MODULATORS” (Cytokinetics, Inc., priority 2020, published 2024).

Target: human NAMPT (Homo sapiens (Human), UniProt P43490)
Assay: Human recombinant enzyme assay (NMN fluorescence biochemical assay)
Settings: 6 nM human NAMPT, 60 min; for AC1.4 Human: concentration of compound that generates 40% higher activity over basal; for EC50: concentration that gives half-maximal activation
In short: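 Recombinant human NAMPT (6 nM) with 2.5 mM ATP, […] PRPP and […] nicotinamide in HEPES pH 7.2 with DTT, CHAPS, NaCl, MgCl2; 60 min at ambient temperature. NMN derivatised with acetophenone/KOH/formic acid, fluorescence read at 355/460 nm. AC1.4 (40% above basal) and EC50 reported.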

Sequence of human NAMPT (P43490 whole entry): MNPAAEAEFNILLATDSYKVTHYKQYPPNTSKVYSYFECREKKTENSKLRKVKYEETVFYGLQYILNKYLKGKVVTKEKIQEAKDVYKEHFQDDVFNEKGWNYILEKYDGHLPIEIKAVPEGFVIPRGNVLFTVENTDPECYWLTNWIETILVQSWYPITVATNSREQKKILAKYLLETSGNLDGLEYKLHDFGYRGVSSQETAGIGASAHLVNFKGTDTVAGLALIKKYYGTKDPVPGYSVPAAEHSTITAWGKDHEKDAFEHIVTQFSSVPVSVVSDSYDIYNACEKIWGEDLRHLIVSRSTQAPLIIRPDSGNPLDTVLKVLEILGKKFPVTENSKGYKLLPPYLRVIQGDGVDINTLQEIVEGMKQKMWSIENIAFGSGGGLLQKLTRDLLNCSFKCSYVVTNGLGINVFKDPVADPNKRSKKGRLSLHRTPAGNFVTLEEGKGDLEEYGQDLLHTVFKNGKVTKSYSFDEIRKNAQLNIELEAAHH

Row | Compound | AC1.4 Human | EC50
1 | Cc1nc(C(=O)NC(C)(C)c2ccccn2)nc(NCCc2cn[nH]c2)c1C [Compound 69, 4-((2-(1H-pyrazol-4-yl)ethyl)amino)-5,6-dimethyl-N-(2-(pyridin-2-yl)propan-2-yl)pyrimidine-2-carboxamide] | 0.5395 µM | 4.18 µM
2 | Cc1nc(C(=O)NC(C)(C)c2cccnc2)nc(NCCc2cn[nH]c2)c1C [Compound 121, 4-((2-(1H-pyrazol-4-yl)ethyl)amino)-5,6-dimethyl-N-(2-(pyridin-3-yl)propan-2-yl)pyrimidine-2-carboxamide] | 2.5075 µM | 22.1 µM
3 | Cc1nc(C(=O)N2CC(O)(C3CC3)C2)nc(NCCc2cn[nH]c2)c1C [Compound 97, (4-((2-(1H-pyrazol-4 yl)ethyl)amino)-5,6-dimethylpyrimidin-2-yl)(3-cyclopropyl-3-hydroxyazetidin-1-yl)methanone] | 6.337 µM | 22.3 µM
4 | Cc1nc(C(=O)NCc2coc3ccccc23)nc(NCCc2cn[nH]c2)c1C [Compound 58, 4-((2-(1H-pyrazol-4-yl)ethyl)amino)-N-(benzofuran-3-ylmethyl)-5,6-dimethylpyrimidine-2-carboxamide] | 0.406 µM | 0.788 µM
5 | Cc1nc(C(=O)N2CC(O)(C(F)(F)F)C2)nc(NCCc2cn[nH]c2)c1C [Compound 48, (4-((2-(1H-pyrazol-4-yl)ethyl)amino)-5,6-dimethylpyrimidin-2-yl)(3-hydroxy-3-(trifluoromethyl)azetidin-1-yl)methanone] | 0.2925 µM | 6.83 µM
6 | Cc1nc(C(=O)Nc2ccccc2)nc(NCCc2cn[nH]c2)c1C [Compound 140, 4-((2-(1H-pyrazol-4-yl)ethyl)amino)-5,6-dimethyl-N-phenylpyrimidine-2-carboxamide] | 4.0885 µM | 18.4 µM
7 | Cc1nc(C(=O)N2CC3(C2)C(=O)Nc2ccccc23)nc(NCCc2cn[nH]c2)c1C [Compound 142, 1-(4-((2-(1H-pyrazol-4-yl)ethyl)amino)-5,6-dimethylpyrimidine-2-carbonyl)spiro[azetidine-3,3′-indolin]-2′-one] | 4.3845 µM | 31.8 µM
8 | Cc1cccc([C@@H](C)NC(=O)c2nc(C)c(C)c(NCCc3cn[nH]c3)n2)n1 [Compound 78, (R)-4-((2-(1H-pyrazol-4-yl)ethyl)amino)-5,6-dimethyl-N-(1-(6-methylpyridin-2-yl)ethyl)pyrimidine-2-carboxamide] | 0.81 µM | 5.62 µM
9 | Cc1nc(C(=O)N[C@H](C)c2ccco2)nc(NCCc2cn[nH]c2)c1C [Compound 75, (R)-4-((2-(1H-pyrazol-4-yl)ethyl)amino)-N-(1-(furan-2-yl)ethyl)-5,6-dimethylpyrimidine-2-carboxamide] | 0.7725 µM | 2.62 µM
10 | Cc1nc(C(=O)N[C@H](C)c2coc3ccccc23)nc(NCCc2cn[nH]c2)c1C [Compound 65, (R)-4-((2-(1H-pyrazol-4-yl)ethyl)amino)-N-(1-(benzofuran-3-yl)ethyl)-5,6-dimethylpyrimidine-2-carboxamide] | 0.4805 µM | 1.69 µM
11 | Cc1nc(C(=O)N2CC(O)(c3cccc(F)c3F)C2)nc(NCCc2cn[nH]c2)c1C [Compound 51, (4-((2-(1H-pyrazol-4-yl)ethyl)amino)-5,6-dimethylpyrimidin-2-yl)(3-(2,3-difluorophenyl)-3-hydroxyazetidin-1-yl)methanone] | 0.327 µM | 1.88 µM
12 | Cc1nc(C(=O)N2CCC(O)(c3ccccc3)CC2)nc(NCCc2cn[nH]c2)c1C [Compound 34, (4-((2-(1H-pyrazol-4-yl)ethyl)amino)-5,6-dimethylpyrimidin-2-yl)(4-hydroxy-4-phenylpiperidin-1-yl)methanone] | 2.839 µM | 17.7 µM
13 | Cc1nc(C(=O)NCc2cccs2)nc(NCCc2cn[nH]c2)c1C [Compound 19, 4-((2-(1H-pyrazol-4-yl)ethyl)amino)-5,6-dimethyl-N-(thiophen-2-ylmethyl)pyrimidine-2-carboxamide] | 0.075 µM | 0.499 µM
14 | Cc1nc(C(=O)N[C@H](C)c2cc3ccccc3o2)nc(NCCc2cn[nH]c2)c1C [Compound 112, (R)-4-((2-(1H-pyrazol-4-yl)ethyl)amino)-N-(1-(benzofuran-2-yl)ethyl)-5,6-dimethylpyrimidine-2-carboxamide] | 2.084 µM | 2.97 µM
15 | Cc1nc(C(=O)N2CCOC[C@H]2Cc2ccccc2)nc(NCCc2cn[nH]c2)c1C [Compound 64, (R)-(4-((2-(1H-pyrazol-4-yl)ethyl)amino)-5,6-dimethylpyrimidin-2-yl)(3-benzylmorpholino)methanone] | 0.458 µM | 2.16 µM
16 | COc1cccc([C@@H](C)NC(=O)c2nc(C)c(C)c(NCCc3cn[nH]c3)n2)n1 [Compound 43, (R)-4-((2-(1H-pyrazol-4-yl)ethyl)amino)-N-(1-(6-methoxypyridin-2-yl)ethyl)-5,6-dimethylpyrimidine-2-carboxamide] | 0.273 µM | 0.827 µM

Row | Compound | AC1.4 Human | EC50
17 | Cc1nc(C(=O)N2CCC(c3ccccc3F)C2)nc(NCCc2cn[nH]c2)c1C (centres unmarked) [Compound 66, (4-((2-(1H-pyrazol-4-yl)ethyl)amino)-5,6-dimethylpyrimidin-2-yl)(3-(2-fluorophenyl)pyrrolidin-1-yl)methanone] | 4.5565 µM | 16.3 µM
18 | Cc1nc(C(=O)N[C@H](C)c2cncc(F)c2)nc(NCCc2cn[nH]c2)c1C [Compound 109, (R)-4-((2-(1H-pyrazol-4-yl)ethyl)amino)-N-(1-(5-fluoropyridin-3-yl)ethyl)-5,6-dimethylpyrimidine-2-carboxamide] | 1.933 µM | 11.2 µM
19 | Cc1nc(C(=O)N2CCOCC2c2cccc(Cl)c2)nc(NCCc2cn[nH]c2)c1C (centres unmarked) [Compound 12, (4-((2-(1H-pyrazol-4-yl)ethyl)amino)-5,6-dimethylpyrimidin-2-yl)(3-(3-chlorophenyl)morpholino)methanone] | 0.048 µM | 0.514 µM
20 | Cc1nc(C(=O)N2CC(O)(c3ccccc3)C2)nc(N2CC[C@@H](c3cn[nH]c3)C2)c1C (single isomer, unassigned) [Compound 9] | 0.044 µM | 0.633 µM
21 | Cc1nc(C(=O)N2CC(OC(F)(F)F)C2)nc(NCCc2cn[nH]c2)c1C [Compound 81, (4-((2-(1H-pyrazol-4-yl)ethyl)amino)-5,6-dimethylpyrimidin-2-yl)(3-(trifluoromethoxy)azetidin-1-yl)methanone] | 0.891 µM | 5.98 µM
22 | Cc1nc(C(=O)N[C@@H](C)c2ccccc2)nc(NCCc2cn[nH]c2)c1C [Compound 59, (S)-4-((2-(1H-pyrazol-4-yl)ethyl)amino)-5,6-dimethyl-N-(1-phenylethyl)pyrimidine-2-carboxamide] | 0.4045 µM | 3.08 µM
23 | Cc1nc(C(=O)N(C)[C@@H](C)c2ccccc2Cl)nc(NCCc2cn[nH]c2)c1C [Compound 29, (S)-4-((2-(1H-pyrazol-4-yl)ethyl)amino)-N-(1-(2-chlorophenyl)ethyl)-N,5,6-trimethylpyrimidine-2-carboxamide] | 0.1725 µM | 1.87 µM
24 | Cc1nc(C(=O)N2CC3(CCC3)C2)nc(NCCc2cn[nH]c2)c1C [Compound 123, (4-((2-(1H-pyrazol-4-yl)ethyl)amino)-5,6-dimethylpyrimidin-2-yl)(2-azaspiro[3.3]heptan-2-yl)methanone] | 2.581 µM | 26.4 µM
25 | Cc1nc(C(=O)NCc2ccccn2)nc(NCCc2cn[nH]c2)c1C [Compound 93, 4-((2-(1H-pyrazol-4-yl)ethyl)amino)-5,6-dimethyl-N-(pyridin-2-ylmethyl)pyrimidine-2-carboxamide] | 1.244 µM | 14.9 µM
26 | Cc1nc(C(=O)N2CCC(C#N)(c3ccccc3)CC2)nc(NCCc2cn[nH]c2)c1C [Compound 96, 1-(4-((2-(1H-pyrazol-4-yl)ethyl)amino)-5,6-dimethylpyrimidine-2-carbonyl)-4-phenylpiperidine-4-carbonitrile] | 1.3075 µM | 8.51 µM
27 | Cc1nc(C(=O)NC(C)c2ccc(Cl)s2)nc(NCCc2cn[nH]c2)c1C (centres unmarked) [Compound 70, 4-((2-(1H-pyrazol-4-yl)ethyl)amino)-N-(1-(5-chlorothiophen-2-yl)ethyl)-5,6-dimethylpyrimidine-2-carboxamide] | 0.5795 µM | 3.12 µM
28 | CCC1(O)CN(C(=O)c2nc(C)c(C)c(NCCc3cn[nH]c3)n2)C1 [Compound 107, (4-((2-(1H-pyrazol-4-yl)ethyl)amino)-5,6-dimethylpyrimidin-2-yl)(3-ethyl-3-hydroxyazetidin-1-yl)methanone] | 2.339 µM | 14 µM
29 | Cc1nc(C(=O)N2CCOCC2c2ccc(F)cc2)nc(NCCc2cn[nH]c2)c1C (centres unmarked) [Compound 67, (4-((2-(1H-pyrazol-4-yl)ethyl)amino)-5,6-dimethylpyrimidin-2-yl)(3-(4-fluorophenyl)morpholino)methanone] | 0.505 µM | 3.86 µM
30 | Cc1nc(C(=O)NC(c2ccc(F)c(F)c2)c2nccn2C)nc(NCCc2cn[nH]c2)c1C (centres unmarked) [Compound 134, 4-((2-(1H-pyrazol-4-yl)ethyl)amino)-N-((3,4-difluorophenyl)(1-methyl-1H-imidazol-2-yl)methyl)-5,6-dimethylpyrimidine-2-carboxamide] | 3.578 µM | 26.2 µM
31 | COC1(c2ccccc2)CN(C(=O)c2nc(C)c(C)c(NCCc3cn[nH]c3)n2)C1 [Compound 102, (4-((2-(1H-pyrazol-4-yl)ethyl)amino)-5,6-dimethylpyrimidin-2-yl)(3-methoxy-3-phenylazetidin-1-yl)methanone] | 2.0105 µM | 12.9 µM
